Data: publication PMC8041284, “Tunable Methacrylamides for Covalent Ligand Directed Release Chemistry” (Journal of the American Chemical Society, 2021)
pIC50: −log10 of the molar value. “Also recorded” adds a separate entry of the source. Where two headings read alike, the source gives them in different places.

Assays:
primary mouse B cells = assay: B-cell response experiment (anti-IgM activation, CD86 by flow cytometry); type: cell-based; settings: representative FACS plot, concentration not given
BLK = BLK (Homo sapiens, UniProt P51451); assay: In vitro kinase activity assay (Nanosyn)
Chain of BLK (P51451 whole entry, species assumed, the tested form may be a part): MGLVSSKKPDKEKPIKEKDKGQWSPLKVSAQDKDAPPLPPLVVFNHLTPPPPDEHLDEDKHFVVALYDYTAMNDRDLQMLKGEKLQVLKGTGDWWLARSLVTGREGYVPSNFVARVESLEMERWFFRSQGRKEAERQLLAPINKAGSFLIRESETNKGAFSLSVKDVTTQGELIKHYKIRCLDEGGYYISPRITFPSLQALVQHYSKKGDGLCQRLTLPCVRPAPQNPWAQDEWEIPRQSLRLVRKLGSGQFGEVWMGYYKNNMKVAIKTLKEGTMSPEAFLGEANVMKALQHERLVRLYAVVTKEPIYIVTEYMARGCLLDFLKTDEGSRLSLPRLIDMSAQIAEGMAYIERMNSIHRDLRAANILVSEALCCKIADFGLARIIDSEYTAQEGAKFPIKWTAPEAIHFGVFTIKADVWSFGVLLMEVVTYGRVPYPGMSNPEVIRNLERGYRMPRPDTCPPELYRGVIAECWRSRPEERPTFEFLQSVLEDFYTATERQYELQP
Experimental: (§1) Kinase reactions are assembled in 384-well plates (Greiner) in a total volume of 20 μL. Test compounds were diluted in DMSO to a final concentration, while the final concentration of DMSO in all assays was kept at 1%. The compounds were incubated with the kinases for 2 h. […] The reaction was initiated by 2-fold dilution into a solution containing 5 μM ATP and 1 μM substrate in the kinase buffer

BTK kinase domain = BTK kinase domain (Homo sapiens, UniProt Q06187); assay: Kinetic labeling of BTK by intact protein LC/MS; type: binding
Chain of BTK kinase domain (Q06187 402-655 limits assumed): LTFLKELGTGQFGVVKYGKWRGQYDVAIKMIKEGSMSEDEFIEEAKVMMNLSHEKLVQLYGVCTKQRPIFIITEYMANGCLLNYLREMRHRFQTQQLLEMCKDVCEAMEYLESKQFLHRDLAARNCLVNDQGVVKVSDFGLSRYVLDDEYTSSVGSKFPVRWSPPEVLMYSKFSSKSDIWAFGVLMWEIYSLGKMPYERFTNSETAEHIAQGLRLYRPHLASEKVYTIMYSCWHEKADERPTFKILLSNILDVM

EGFR = EGFR (Homo sapiens, UniProt P00533); assay: In vitro kinase activity assay (Nanosyn); type: biochemical; settings: for pIC50: rounded, 2 h preincubation, 5 μM ATP
Chain of EGFR (P00533 25-1210): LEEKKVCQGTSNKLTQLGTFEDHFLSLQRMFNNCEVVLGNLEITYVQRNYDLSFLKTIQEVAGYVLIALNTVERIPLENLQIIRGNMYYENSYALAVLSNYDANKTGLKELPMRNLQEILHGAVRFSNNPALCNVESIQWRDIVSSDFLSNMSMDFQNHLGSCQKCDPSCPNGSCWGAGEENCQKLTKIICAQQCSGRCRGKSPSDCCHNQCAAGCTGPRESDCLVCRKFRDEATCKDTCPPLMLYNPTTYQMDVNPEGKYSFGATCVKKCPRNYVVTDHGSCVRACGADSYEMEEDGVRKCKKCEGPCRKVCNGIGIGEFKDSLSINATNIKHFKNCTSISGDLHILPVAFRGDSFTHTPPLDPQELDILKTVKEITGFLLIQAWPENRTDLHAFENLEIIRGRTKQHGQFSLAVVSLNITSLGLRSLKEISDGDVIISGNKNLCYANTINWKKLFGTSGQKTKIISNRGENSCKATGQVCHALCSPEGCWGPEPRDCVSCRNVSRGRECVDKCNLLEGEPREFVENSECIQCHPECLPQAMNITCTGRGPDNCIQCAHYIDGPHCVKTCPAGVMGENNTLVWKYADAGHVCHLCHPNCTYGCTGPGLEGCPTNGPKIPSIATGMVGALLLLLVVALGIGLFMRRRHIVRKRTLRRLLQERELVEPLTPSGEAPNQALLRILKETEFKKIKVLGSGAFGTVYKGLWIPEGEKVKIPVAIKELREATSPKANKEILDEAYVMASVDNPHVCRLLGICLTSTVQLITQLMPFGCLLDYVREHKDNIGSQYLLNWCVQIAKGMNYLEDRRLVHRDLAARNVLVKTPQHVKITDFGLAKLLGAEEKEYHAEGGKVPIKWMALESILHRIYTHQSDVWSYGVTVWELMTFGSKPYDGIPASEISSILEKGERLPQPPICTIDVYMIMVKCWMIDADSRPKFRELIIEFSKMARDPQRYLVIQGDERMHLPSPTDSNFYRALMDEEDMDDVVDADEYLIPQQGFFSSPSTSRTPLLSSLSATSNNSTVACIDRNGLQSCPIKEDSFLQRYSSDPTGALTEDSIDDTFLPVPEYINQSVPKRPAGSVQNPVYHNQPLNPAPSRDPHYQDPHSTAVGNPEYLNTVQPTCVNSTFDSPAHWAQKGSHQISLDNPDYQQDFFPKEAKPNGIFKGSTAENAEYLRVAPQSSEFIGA
Experimental: as §1
in 100 mM HEPES, pH 7.5, 0.1% BSA, 0.01% Triton X-100, 1 mM DTT, 10 mM MnCl2.
initiated by 2-fold dilution into a solution containing 5 μM ATP and 1 μM substrate in the kinase buffer.

[1] = GSH reactivity assay for ibrutinib derivatives (LC/MS); type: physicochemical; settings: 5 mM GSH in phosphate buffer/DMF 9:1, 100 μM compound, buffer pH 8.0:DMF 9:1, 37 °C
Experimental: (§2) LC/MS runs were performed on a Waters ACUITY UPLC class H instrument, in positive ion mode using electrospray ionization. […] The column was held at 40 °C, and the autosampler at 10 °C. Mobile phase A was 0.1% formic acid in the water, and mobile phase B was 0.1% formic acid in acetonitrile. The run flow was 0.3 mL/min. […] The column was held at 40 °C, and the autosampler at 10 °C. Mobile solution A was 0.1% formic acid in the water, and mobile phase B was 0.1% formic acid in acetonitrile.
All solvents were bubbled with argon.

BMX = target: T1, BMX (Homo sapiens, UniProt P51813); assay: In vitro kinase activity assay (Nanosyn)
T1 sequence (P51813 1-675): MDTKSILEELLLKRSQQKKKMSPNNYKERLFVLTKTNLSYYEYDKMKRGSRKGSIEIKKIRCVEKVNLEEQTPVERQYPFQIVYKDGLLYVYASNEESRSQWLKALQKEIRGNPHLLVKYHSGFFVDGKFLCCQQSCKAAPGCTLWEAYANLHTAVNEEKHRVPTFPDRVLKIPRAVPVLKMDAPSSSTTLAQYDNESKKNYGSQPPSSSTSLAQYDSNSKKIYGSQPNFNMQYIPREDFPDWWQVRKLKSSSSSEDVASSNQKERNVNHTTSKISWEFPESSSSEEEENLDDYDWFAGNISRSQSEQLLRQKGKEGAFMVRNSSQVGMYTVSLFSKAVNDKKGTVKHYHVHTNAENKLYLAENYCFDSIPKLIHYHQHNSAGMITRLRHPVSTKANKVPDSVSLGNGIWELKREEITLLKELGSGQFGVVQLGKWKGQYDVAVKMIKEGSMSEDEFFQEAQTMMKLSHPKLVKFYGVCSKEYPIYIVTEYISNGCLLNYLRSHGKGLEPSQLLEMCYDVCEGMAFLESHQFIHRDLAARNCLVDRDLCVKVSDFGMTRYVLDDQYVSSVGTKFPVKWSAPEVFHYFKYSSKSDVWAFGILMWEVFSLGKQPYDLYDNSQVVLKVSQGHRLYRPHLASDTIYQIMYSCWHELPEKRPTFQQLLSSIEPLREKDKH
Experimental: as §1

ERBB2 = ERBB2 (Homo sapiens, UniProt P04626); assay: In vitro kinase activity assay (Nanosyn)
Chain of ERBB2 (P04626 23-1255, species assumed): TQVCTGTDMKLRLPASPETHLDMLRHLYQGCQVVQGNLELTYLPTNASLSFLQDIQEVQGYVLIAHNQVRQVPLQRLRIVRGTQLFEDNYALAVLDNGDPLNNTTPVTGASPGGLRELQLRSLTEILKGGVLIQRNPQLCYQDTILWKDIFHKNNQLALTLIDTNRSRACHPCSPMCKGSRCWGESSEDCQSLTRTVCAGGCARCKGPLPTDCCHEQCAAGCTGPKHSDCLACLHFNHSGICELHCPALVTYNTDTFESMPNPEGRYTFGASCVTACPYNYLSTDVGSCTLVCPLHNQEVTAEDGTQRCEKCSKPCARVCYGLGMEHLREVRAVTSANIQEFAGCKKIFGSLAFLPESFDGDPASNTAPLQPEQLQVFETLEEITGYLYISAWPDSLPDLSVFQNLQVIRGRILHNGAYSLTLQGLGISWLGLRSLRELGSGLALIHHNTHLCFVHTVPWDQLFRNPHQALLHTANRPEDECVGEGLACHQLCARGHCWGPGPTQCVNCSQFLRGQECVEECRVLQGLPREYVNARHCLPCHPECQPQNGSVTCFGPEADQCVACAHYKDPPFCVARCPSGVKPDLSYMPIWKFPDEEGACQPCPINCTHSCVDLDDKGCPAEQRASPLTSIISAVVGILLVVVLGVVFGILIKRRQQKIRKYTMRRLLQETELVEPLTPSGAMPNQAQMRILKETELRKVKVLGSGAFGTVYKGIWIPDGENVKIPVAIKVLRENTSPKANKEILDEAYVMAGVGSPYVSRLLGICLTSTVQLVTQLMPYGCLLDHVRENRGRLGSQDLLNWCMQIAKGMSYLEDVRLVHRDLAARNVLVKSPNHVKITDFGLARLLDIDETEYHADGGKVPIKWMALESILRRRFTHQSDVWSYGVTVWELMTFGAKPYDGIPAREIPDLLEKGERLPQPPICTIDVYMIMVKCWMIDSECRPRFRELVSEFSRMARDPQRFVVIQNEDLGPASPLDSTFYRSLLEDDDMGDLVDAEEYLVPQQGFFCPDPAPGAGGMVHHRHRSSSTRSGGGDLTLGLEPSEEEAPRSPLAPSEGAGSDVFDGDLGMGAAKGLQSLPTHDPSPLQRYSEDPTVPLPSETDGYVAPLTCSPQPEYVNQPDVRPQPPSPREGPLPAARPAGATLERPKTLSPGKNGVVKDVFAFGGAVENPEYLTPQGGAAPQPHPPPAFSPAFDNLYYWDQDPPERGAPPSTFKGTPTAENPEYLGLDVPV
Experimental: as §1

wild-type BTK = wild-type BTK (Homo sapiens, UniProt Q06187); assay: In vitro kinase activity assay (Nanosyn)
Chain of wild-type BTK (Q06187 whole entry): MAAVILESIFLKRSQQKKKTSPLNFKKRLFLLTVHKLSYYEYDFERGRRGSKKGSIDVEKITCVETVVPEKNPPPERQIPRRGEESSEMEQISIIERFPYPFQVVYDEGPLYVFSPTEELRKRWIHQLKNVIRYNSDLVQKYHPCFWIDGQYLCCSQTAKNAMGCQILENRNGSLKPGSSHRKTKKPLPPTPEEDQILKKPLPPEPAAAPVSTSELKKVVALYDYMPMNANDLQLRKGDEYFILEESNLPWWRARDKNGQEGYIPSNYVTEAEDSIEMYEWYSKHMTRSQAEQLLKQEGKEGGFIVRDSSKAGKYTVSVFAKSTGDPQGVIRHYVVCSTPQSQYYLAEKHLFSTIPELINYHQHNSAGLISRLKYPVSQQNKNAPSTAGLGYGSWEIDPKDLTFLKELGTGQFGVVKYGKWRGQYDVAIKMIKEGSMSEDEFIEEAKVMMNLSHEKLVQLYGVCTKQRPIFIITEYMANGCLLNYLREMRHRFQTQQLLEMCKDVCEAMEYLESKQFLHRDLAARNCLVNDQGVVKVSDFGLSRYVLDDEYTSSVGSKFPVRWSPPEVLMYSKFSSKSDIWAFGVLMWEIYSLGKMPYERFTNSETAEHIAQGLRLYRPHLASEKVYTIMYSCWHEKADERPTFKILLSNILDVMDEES
Experimental: as §1

ITK = target: T2, ITK (Homo sapiens, UniProt Q08881); assay: In vitro kinase activity assay (Nanosyn)
T2 sequence (Q08881 1-620): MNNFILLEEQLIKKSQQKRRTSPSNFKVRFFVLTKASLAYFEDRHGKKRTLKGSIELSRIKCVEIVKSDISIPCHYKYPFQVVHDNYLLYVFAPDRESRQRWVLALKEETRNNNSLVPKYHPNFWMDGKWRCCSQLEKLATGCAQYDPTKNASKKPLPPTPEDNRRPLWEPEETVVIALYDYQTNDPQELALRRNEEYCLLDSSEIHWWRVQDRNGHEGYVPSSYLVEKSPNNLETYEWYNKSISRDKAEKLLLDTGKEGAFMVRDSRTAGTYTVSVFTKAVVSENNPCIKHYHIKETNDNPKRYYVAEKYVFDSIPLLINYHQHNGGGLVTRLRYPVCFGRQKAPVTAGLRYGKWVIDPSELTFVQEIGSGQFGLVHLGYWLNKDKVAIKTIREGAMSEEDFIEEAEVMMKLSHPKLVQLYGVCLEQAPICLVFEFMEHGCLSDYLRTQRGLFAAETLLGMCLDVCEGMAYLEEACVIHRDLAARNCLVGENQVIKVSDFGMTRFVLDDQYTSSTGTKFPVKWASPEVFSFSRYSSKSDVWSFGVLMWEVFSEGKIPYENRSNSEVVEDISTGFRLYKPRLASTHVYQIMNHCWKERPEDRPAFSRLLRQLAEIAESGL
Experimental: as §1

Mino cells = assay: In-gel fluorescence activity-based profiling (in situ proteomic labeling); type: cell-based; settings: Mino cells treated for 2 h, TAMRA-azide click
Experimental: Mino cells were treated for 2 h with either 0.1% DMSO or the indicated concentrations of IA-alkyne, 2a, 2b, and 2c. The cells were lysed with RIPA buffer (Sigma), and protein concentration was determined using the BCA protein assay (Thermo Fisher Scientific). Lysates were then diluted to 2 mg/mL in PBS and clicked to TAMRA-azide (click chemistry tools). Click reaction was performed using a final concentration of 40 μM TAMRA-azide, 3 mM CuSO4, 3 mM tris(3-hydroxypropyltriazolylmethyl)amine (THPTA, Sigma), and 3.7 mM sodium L-ascorbate (Sigma) in a final volume of 60 μL. The samples were incubated at 25 °C for 2 h. A 20 μL amount of 4× LDS sample buffer (NuPAGE, Thermo Fischer Scientific) was added followed by a 10 min incubation at 70 °C. The samples were then loaded on a 4–20% Bis-Tris gel (SurePAGE, GeneScript) and imaged using a Typhoon FLA 9500 scanner.

BTK [2] = target: T3, BTK (Homo sapiens, UniProt Q06187); assay: biochemical; settings: read-out: BTK inhibition (%), 0.75 uM BTK, […] probe 3l, 15 min preincubation
T3 sequence (Q06187 402-655 limits assumed): as the sequence (Q06187 402-655 limits assumed) above

BTK [3] = target: T3, BTK; assay: HTS with the chemiluminescent probe 3l (%BTK binding inhibition); settings: 10 μM compound, 0.75 μM BTK
BTK [4] = target: T3, BTK; assay: biochemical; set-up: HTS: BTK preincubated 15 min with compound, then chemiluminescent covalent probe 3l; loss of luminescence at 30 min; settings: 0.75 uM BTK, 1.5 uM probe 3l, 15 min preincubation
BSA = BSA (Bos taurus, UniProt P02769); assay: Turn-on fluorescence selectivity control with BSA; type: binding; settings: 10 μM BSA with 2 μM 3k
Chain of BSA (P02769 25-607): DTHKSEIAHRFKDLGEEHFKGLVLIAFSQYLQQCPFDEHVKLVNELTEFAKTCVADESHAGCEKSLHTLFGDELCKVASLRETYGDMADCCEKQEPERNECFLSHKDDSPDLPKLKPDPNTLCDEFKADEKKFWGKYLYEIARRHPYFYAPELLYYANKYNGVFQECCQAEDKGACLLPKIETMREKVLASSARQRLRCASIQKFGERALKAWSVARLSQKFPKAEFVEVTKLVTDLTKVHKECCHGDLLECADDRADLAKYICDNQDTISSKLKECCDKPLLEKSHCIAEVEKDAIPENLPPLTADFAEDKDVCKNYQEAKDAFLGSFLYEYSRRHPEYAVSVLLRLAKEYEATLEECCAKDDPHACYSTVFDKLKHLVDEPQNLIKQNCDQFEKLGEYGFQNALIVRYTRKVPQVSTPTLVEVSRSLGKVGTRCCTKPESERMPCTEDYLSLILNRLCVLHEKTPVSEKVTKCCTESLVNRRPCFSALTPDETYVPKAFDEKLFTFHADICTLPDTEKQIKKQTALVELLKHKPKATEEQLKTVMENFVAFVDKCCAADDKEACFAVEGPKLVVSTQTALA
From the text: The fact that a specific leaving group is released as a function of selective binding of a target protein can be used to functionalize irreversible inhibitors, for example as turn-on fluorescent probes. To assess the applicability and generality of this approach, we chose three therapeutic targets for which acrylamide inhibitors are available: BTK, EGFR, and K-RAS^G12C as model systems. Initially, we treated 3k (Figure 6A) with BTK, measured the released coumarin fluorescence, and validated the labeling via LC/MS (Figure 6B,C). […] We could also […] the rate of the reaction by using 20:1 equiv of protein:probe (Figure S16). […] The release can also be inhibited by preincubation of BTK with iodoacetamide alkyne (IAA; Figure S17B).
Figure S17. […] A. 10 μM BSA with 2
B. 2 μM BTK fully labeled with IAA (red) compared to 2 μM non labeled BTK (blue) with 2 μM 3k. The lack of signal for the labeled BTK indicated the fluorescence is triggered by a free cysteine.
(1 picture or pasted object on this page, not shown here)

BTK [5] = target: T3, BTK; assay: Fluorescence intensity measurement of CoLDR turn-on probe; type: binding; settings: 2 μM probe, 2 μM BTK
BTK [6] = target: T3, BTK; assay: Chemiluminescence emission of probe 3l with BTK; settings: 2 μM probe, 2 μM BTK
[7] = GSH reactivity assay for model compounds (LC/MS); type: physicochemical; settings: 100 μM 1i and 5 mM GSH in PBS buffer, pH 8, 37 °C (n = 3)
Experimental: as §2
All solvents were bubbled with argon. Reaction mixtures were kept at 37 °C with shaking. At various times 5 μL from the reaction mixture was injected into the LC/MS.

BTK [8] = target: T3, BTK; settings: 0.75 uM BTK, […] probe 3l, 15 min preincubation, 10 µM, inhibitor, BTK inhibition (%)
[9] = BTK IC50, in vitro kinase activity assay
[10] = BTK IC50, rounded, 2 h preincubation, 5 μM ATP
[11] = BTK IC50, 0.6 nM BTK, 5 μM ATP, Figure 4C

C=CC(=O)N1CCC[C@@H](n2nc(-c3ccc(Oc4ccccc4)cc3)c3c(N)ncnc32)C1 [ibrutinib, reference compound]
B220+ cells-activated (CD86 positive) (primary mouse B cells): 81.2%

C=C(CNCc1ccccc1)C(=O)N1CCC[C@@H](n2nc(-c3ccc(Oc4ccccc4)cc3)c3c(N)ncnc32)C1 [3e]
pIC50 (BLK): 10.00 | BLK/BTK (BLK; selectivity ratio of IC50): 1 | BTK labeling mechanism (BTK kinase domain): exclusively through addition with no substitution product | pIC50 (EGFR): 8.52 | EGFR/BTK (EGFR; selectivity ratio of IC50): 36 | half-life at 100 μM [1]: > 100 h | pIC50 (BMX): 9.40 | BMX/BTK (BMX; selectivity ratio of IC50): 5 | B220+ cells-activated (CD86 positive) (primary mouse B cells): 77.3% | pIC50 (ERBB2): 7.89 | ERBB2/BTK (ERBB2; selectivity ratio of IC50): 169 | pIC50 (wild-type BTK; [9]): > 10.00 | pIC50 (wild-type BTK; [10]): 10.00 | pIC50 (ITK): 7.52 | ITK/BTK (ITK; selectivity ratio of IC50): 383

C#CCCNC(=O)C(=C)CN(C)c1ccccc1 [2c]
in situ proteomic labeling (in-gel fluorescence) (Mino cells): completely inactive

Cc1cc(-c2ccc(N=Nc3ccc4c(S(=O)(=O)O)cc(S(=O)(=O)O)c(N)c4c3O)c(C)c2)ccc1N=Nc1ccc2c(S(=O)(=O)O)cc(S(=O)(=O)O)c(N)c2c1O [PCM-0214845]
inhibition at 10 µM (BTK [2]): 125% | BTK inhibition (%) (BTK [3]): 125.3%

CC(C)[C@]12O[C@H]1[C@@H]1O[C@@]13[C@@]1(C)CCC4=C(COC4=O)[C@@H]1C[C@@H]1O[C@@]13C2=O [PCM-0216318]
inhibition at 10 µM (BTK [4]): -26.3%

C#CCCNC(=O)C(=C)COc1ccc2ccc(=O)oc2c1 [2a]
in situ proteomic labeling (in-gel fluorescence) (Mino cells): labeled more proteins compared to 2b

COc1c/c(=C2\C=c3ccccc3=N2)[nH]/c1=C\c1[nH]c(C)cc1C [PCM-0094986]
inhibition at 10 µM (BTK [2]): 133% | BTK inhibition (%) (BTK [3]): 133.1%

C=C(COC(=O)OC)C(=O)N1CCC[C@@H](n2nc(-c3ccc(Oc4ccccc4)cc3)c3c(N)ncnc32)C1 [3i]
pIC50 (BLK): 9.10 | pIC50 (EGFR): 7.51 | pIC50 (BMX): 9.40 | B220+ cells-activated (CD86 positive) (primary mouse B cells): 85.0% | pIC50 (ERBB2): 6.76 | pIC50 (ITK): 6.63

C=C(COc1ccc2ccc(=O)oc2c1)C(=O)N1CCC[C@@H](n2nc(-c3ccc(Oc4ccccc4)cc3)c3c(N)ncnc32)C1 [3k]
turn-on fluorescence with BSA (BSA): no reaction; also recorded: does not result in increased fluorescence | pIC50 (wild-type BTK; [11]): 9.00 | increase of fluorescence intensity at 435 nm upon addition of BTK (BTK [5]): 30 fold | time to saturation of fluorescence (BTK [5]): ≤ 10 min

C=C(COc1c(/C=C/C(=O)OC)ccc(C2(OC)OOC23C2CC4CC(C2)CC3C4)c1Cl)C(=O)N1CCC[C@@H](n2nc(-c3ccc(Oc4ccccc4)cc3)c3c(N)ncnc32)C1 (stereo partly shown) [3l]
chemiluminescence enhancement by BTK (total photon counts vs probe alone) (BTK [6]): 90 fold | time to maximum chemiluminescence signal (BTK [6]): ≤ 20 min

C=C(C)C(=O)N1CCC[C@@H](n2nc(-c3ccc(Oc4ccccc4)cc3)c3c(N)ncnc32)C1 [3a]
pIC50 (wild-type BTK; [11]): 7.91

C=C(COc1ccc2ccc(=O)oc2c1)C(=O)NCc1ccccc1 [1i]
rate of depletion of 1i, k [7]: 0.24 h⁻¹ | rate of formation of coumarin, k [7]: 0.24 h⁻¹

CNCCc1ccccn1 [PCM-0086123]
BTK inhibition (%) (BTK [8]): 5.4% | inhibition at 10 µM (BTK [2]): 5.5%

C[C@]12CC[C@H](O)C[C@@]1(O)CC[C@@H]1[C@@H]2CC[C@]2(C)[C@@H](C3=CC(=O)OC3)CC[C@]12O [PCM-0216443]
inhibition at 10 µM (BTK [4]): 6.2%

C=C(CN(C)c1ccccc1)C(=O)N1CCC[C@@H](n2nc(-c3ccc(Oc4ccccc4)cc3)c3c(N)ncnc32)C1 [3d]
half-life at 100 μM [1]: > 100 h | pIC50 (wild-type BTK): 8.25

C=C(COC(C)=O)C(=O)N1CCC[C@@H](n2nc(-c3ccc(Oc4ccccc4)cc3)c3c(N)ncnc32)C1 [3h]
pIC50 (BLK): 9.22 | pIC50 (EGFR): 7.55 | pIC50 (BMX): 9.52 | B220+ cells-activated (CD86 positive) (primary mouse B cells): 82.9% | pIC50 (ERBB2): 6.71 | pIC50 (wild-type BTK; [9]): > 10.00 | pIC50 (wild-type BTK; [10]): 10.00 | pIC50 (ITK): 6.53

COc1cc2nccc(Oc3ccc(NC(=O)C4(C(=O)Nc5ccc(F)cc5)CC4)cc3)c2cc1OC [PCM-0094920]
BTK inhibition (%) (BTK [8]): 123.4% | inhibition at 10 µM (BTK [2]): 86.9%

C=C(CN1CCCCC1)C(=O)N1CCC[C@@H](n2nc(-c3ccc(Oc4ccccc4)cc3)c3c(N)ncnc32)C1 [3c]
pIC50 (BLK): 10.00 | BTK labeling mechanism (BTK kinase domain): exclusively through addition with no substitution product | pIC50 (EGFR): 8.15 | pIC50 (BMX): 9.52 | B220+ cells-activated (CD86 positive) (primary mouse B cells): 81.6% | pIC50 (ERBB2): 7.48 | pIC50 (wild-type BTK; [9]): > 10.00 | pIC50 (wild-type BTK; [10]): 10.00 | pIC50 (ITK): 7.37

Cc1ccc(-n2[nH]c(C)c(N=Nc3cccc(-c4cccc(C(=O)O)c4)c3O)c2=O)cc1C [PCM-0214811]
BTK inhibition (%) (BTK [8]): 77% | inhibition at 10 µM (BTK [2]): 80.2%
